Source: ChEMBL document CHEMBL3792284, “Synthesis of triazoloquinazolinone based compounds as tubulin polymerization inhibitors and vascular disrupting agents” (Eur J Med Chem, 2016)

What was measured:
HT-29 [1] = assay: Antiproliferative activity against human HT-29 cells at 10 uM after 72 hrs by MTS assay; type: functional; conditions: HT-29, 72 h
Tubulin = Tubulin (Bos taurus, UniProt Q6B856+Q862L2+Q862F3); assay: Inhibition of bovine tubulin polymerization after 1 hr by fluorescence spectrometry; type: protein assay
A498 [2] = assay: Growth inhibition of human A498 cells after 48 hrs by sulforhodamine B assay; type: functional; conditions: A498, 48 h
[3] = Growth inhibition of human SF295 cells after 48 hrs by sulforhodamine B assay; type: functional; conditions: SF-295, 48 h
MCF7 [4] = assay: Growth inhibition of human MCF7 cells after 3 days by MTT assay; type: functional; conditions: MCF7, 72 h
SR [5] = assay: Growth inhibition of human SR cells after 48 hrs by sulforhodamine B assay; type: functional
[6] = Growth inhibition of human SNB75 cells after 48 hrs by sulforhodamine B assay; type: functional; conditions: SNB-75, 48 h
[7] = Growth inhibition of human HCT116 cells after 48 hrs by sulforhodamine B assay; type: functional; conditions: HCT-116, 48 h
[8] = Growth inhibition of human HCT15 cells after 48 hrs by sulforhodamine B assay; type: functional; conditions: HCT-15, 48 h
MDA-MB-435 [9] = assay: Growth inhibition of human MDA-MB-435 cells after 72 hrs by MTT assay; type: functional; conditions: MDA-MB-435, 72 h
A549 [10] = assay: Growth inhibition of human A549/ATCC cells after 48 hrs by sulforhodamine B assay; type: functional; conditions: A549, 48 h
[11] = Growth inhibition of human HL-60(TB) cells after 48 hrs by sulforhodamine B assay; type: functional; conditions: HL-60, 48 h
HT-29 [12] = assay: Growth inhibition of human HT-29 cells after 48 hrs by sulforhodamine B assay; type: functional; conditions: HT-29, 48 h
NCI-H522 [13] = assay: Growth inhibition of human NCI-H522 cells after 48 hrs by sulforhodamine B assay; type: functional; conditions: NCI-H522, 48 h
[14] = Growth inhibition of human HOP62 cells after 48 hrs by sulforhodamine B assay; type: functional; conditions: HOP-62, 48 h
[15] = Growth inhibition of human COLO205 cells after 48 hrs by sulforhodamine B assay; type: functional; conditions: COLO 205, 48 h
U-251 [16] = assay: Growth inhibition of human U251 cells after 48 hrs by sulforhodamine B assay; type: functional; conditions: U-251, 48 h
[17] = Growth inhibition of human OVCAR3 cells after 48 hrs by sulforhodamine B assay; type: functional; conditions: OVCAR-3, 48 h
[18] = Growth inhibition of human PC3 cells after 48 hrs by sulforhodamine B assay; type: functional; conditions: PC-3, 48 h
[19] = Growth inhibition of human Caki1 cells after 48 hrs by sulforhodamine B assay; type: functional; conditions: CAKI-1, 48 h
SK-MEL-5 [20] = assay: Growth inhibition of human SK-MEL-5 cells after 48 hrs by sulforhodamine B assay; type: functional; conditions: SK-MEL-5, 48 h
K562 [21] = assay: Growth inhibition of human K562 cells after 48 hrs by sulforhodamine B assay; type: functional; conditions: K562, 48 h
MCF7 [22] = assay: Growth inhibition of human MCF7 cells at 10 uM after 48 hrs by sulforhodamine B assay; type: functional; conditions: MCF7, 48 h, read-out: GI
K562 [23] = assay: Growth inhibition of human K562 cells at 10 uM after 48 hrs by sulforhodamine B assay; type: functional; conditions: K562, 48 h, read-out: GI
MDA-MB-435 [24] = assay: Growth inhibition of human MDA-MB-435 cells at 10 uM after 48 hrs by sulforhodamine B assay; type: functional; conditions: MDA-MB-435, 48 h, read-out: GI
[25] = Growth inhibition of human HCT116 cells at 10 uM after 48 hrs by sulforhodamine B assay; type: functional; conditions: HCT-116, 48 h, read-out: GI
[26] = Growth inhibition of human HCT15 cells at 10 uM after 48 hrs by sulforhodamine B assay; type: functional; conditions: HCT-15, 48 h, read-out: GI
U-251 [27] = assay: Growth inhibition of human U251 cells at 10 uM after 48 hrs by sulforhodamine B assay; type: functional; conditions: U-251, 48 h, read-out: GI
[28] = Growth inhibition of human OVCAR3 cells at 10 uM after 48 hrs by sulforhodamine B assay; type: functional; conditions: OVCAR-3, 48 h, read-out: GI
A549 [29] = assay: Growth inhibition of human A549/ATCC cells at 10 uM after 48 hrs by sulforhodamine B assay; type: functional; conditions: A549, 48 h, read-out: GI
[30] = Growth inhibition of human DU145 cells at 10 uM after 48 hrs by sulforhodamine B assay; type: functional; conditions: DU-145, 48 h, read-out: GI
[31] = Growth inhibition of human NCI-ADR-RES cells after 48 hrs by sulforhodamine B assay; type: functional
HT-29 [32] = assay: Growth inhibition of human HT-29 cells at 10 uM after 48 hrs by sulforhodamine B assay; type: functional; conditions: HT-29, 48 h, read-out: GI
[33] = Growth inhibition of human PC3 cells at 10 uM after 48 hrs by sulforhodamine B assay; type: functional; conditions: PC-3, 48 h, read-out: GI
[34] = Cytotoxicity against human COLO205 cells assessed as cell growth at 10 uM after 48 hrs by sulforhodamine B assay; type: functional; conditions: COLO 205, 48 h, read-out: Activity
MDA-MB-468 [35] = assay: Growth inhibition of human MDA-MB-468 cells after 48 hrs by sulforhodamine B assay; type: functional; conditions: MDA-MB-468, 48 h
[36] = Growth inhibition of human SF295 cells at 10 uM after 48 hrs by sulforhodamine B assay; type: functional; conditions: SF-295, 48 h, read-out: GI
[37] = Cytotoxicity against human HL-60(TB) cells assessed as cell growth at 10 uM after 48 hrs by sulforhodamine B assay; type: functional; conditions: HL-60, 48 h, read-out: Activity
[38] = Growth inhibition of human SNB75 cells at 10 uM after 48 hrs by sulforhodamine B assay; type: functional; conditions: SNB-75, 48 h, read-out: GI
[39] = Growth inhibition of human HOP62 cells at 10 uM after 48 hrs by sulforhodamine B assay; type: functional; conditions: HOP-62, 48 h, read-out: GI
SR [40] = assay: Growth inhibition of human SR cells at 10 uM after 48 hrs by sulforhodamine B assay; type: functional; conditions: read-out: GI
[41] = Growth inhibition of human DU145 cells after 48 hrs by sulforhodamine B assay; type: functional; conditions: DU-145, 48 h
MDA-MB-435 [42] = assay: Cytotoxicity against human MDA-MB-435 cells assessed as cell growth at 10 uM after 48 hrs by sulforhodamine B assay; type: functional; conditions: MDA-MB-435, 48 h, read-out: Activity
[43] = Growth inhibition of human COLO205 cells at 10 uM after 48 hrs by sulforhodamine B assay; type: functional; conditions: COLO 205, 48 h, read-out: GI
[44] = Growth inhibition of human NCI-ADR-RES cells at 10 uM after 48 hrs by sulforhodamine B assay; type: functional; conditions: read-out: GI
[45] = Growth inhibition of human HL-60(TB) cells at 10 uM after 48 hrs by sulforhodamine B assay; type: functional; conditions: HL-60, 48 h, read-out: GI
MCF7 [46] = assay: Growth inhibition of human MCF7 cells after 48 hrs by sulforhodamine B assay; type: functional; conditions: MCF7, 48 h
MDA-MB-435 [47] = assay: Growth inhibition of human MDA-MB-435 cells after 48 hrs by sulforhodamine B assay; type: functional; conditions: MDA-MB-435, 48 h
SK-MEL-5 [48] = assay: Growth inhibition of human SK-MEL-5 cells at 10 uM after 48 hrs by sulforhodamine B assay; type: functional; conditions: SK-MEL-5, 48 h, read-out: GI
MDA-MB-468 [49] = assay: Growth inhibition of human MDA-MB-468 cells at 10 uM after 48 hrs by sulforhodamine B assay; type: functional; conditions: MDA-MB-468, 48 h, read-out: GI
A498 [50] = assay: Growth inhibition of human A498 cells at 10 uM after 48 hrs by sulforhodamine B assay; type: functional; conditions: A498, 48 h, read-out: GI
[51] = Growth inhibition of human Caki1 cells at 10 uM after 48 hrs by sulforhodamine B assay; type: functional; conditions: CAKI-1, 48 h, read-out: GI
NCI-H522 [52] = assay: Growth inhibition of human NCI-H522 cells at 10 uM after 48 hrs by sulforhodamine B assay; type: functional; conditions: NCI-H522, 48 h, read-out: GI
HUVEC = assay: Inhibition of cell invasion of HUVEC at 1 uM after 24 hrs by crystal violet staining based Boyden chamber assay; type: functional; conditions: Homo sapiens

COc1ccc(-c2nnc3[nH]c(=O)c4ccccc4n23)cc1O
inhibition at 10 µM (HT-29 [1]): 10%
IC50 (Tubulin): 4260 nM

COc1ccc(/C=C\c2cc(OC)c(OC)c(OC)c2)cc1O [COMBRETASTATIN A4]
GI50 (A498 [2]): 6 nM
GI50 [3]: 4 nM
GI50 (MCF7 [4]): 18 nM
GI50 (SR [5]): 3 nM
GI50 [6]: 8 nM
GI50 [7]: 3 nM
GI50 [8]: 4 nM
GI50 (MDA-MB-435 [9]): 3 nM
GI50 (A549 [10]): 16 nM
GI50 [11]: 2 nM
GI50 (HT-29 [12]): 118 nM
GI50 (NCI-H522 [13]): 2 nM
GI50 [14]: 2 nM
GI50 [15]: 221 nM
GI50 (U-251 [16]): 4 nM
GI50 [17]: 2 nM
GI50 [18]: 1 nM
GI50 [19]: 25 nM
GI50 (SK-MEL-5 [20]): 3 nM
GI50 (K562 [21]): 2 nM

COc1cc(-c2nnc3[nH]c(=O)c4ccccc4n23)ccc1O
inhibition at 10 µM (HT-29 [1]): 0%
IC50 (Tubulin): > 10000 nM

COc1ccc(-c2nnc3n(C)c(=O)c4ccccc4n23)cc1N
inhibition of growth at 10 µM (MCF7 [22]): 85%
inhibition of growth at 10 µM (K562 [23]): 92%
inhibition of growth at 10 µM (MDA-MB-435 [24]): 100%
GI50 (A498 [2]): 2840 nM
GI50 [3]: 50 nM
inhibition of growth at 10 µM [25]: 76%
GI50 (SR [5]): 34 nM
inhibition of growth at 10 µM [26]: 78%
GI50 [7]: 57 nM
inhibition of growth at 10 µM (U-251 [27]): 81%
inhibition of growth at 10 µM [28]: 92%
inhibition of growth at 10 µM (A549 [29]): 72%
inhibition of growth at 10 µM [30]: 79%
GI50 [31]: 65 nM
inhibition of growth at 10 µM (HT-29 [32]): 95%
GI50 [8]: 50 nM
inhibition of growth at 10 µM [33]: 67%
GI50 (A549 [10]): 1470 nM
growth at 10 µM [34]: 18%
GI50 (MDA-MB-468 [35]): 2330 nM
GI50 (HT-29 [12]): 43 nM
inhibition of growth at 10 µM [36]: 98%
inhibition at 10 µM (HT-29 [1]): 95%
growth at 10 µM [37]: 11%
inhibition of growth at 10 µM [38]: 81%
inhibition of growth at 10 µM [39]: 83%
GI50 (NCI-H522 [13]): 31 nM
IC50 (Tubulin): > 10000 nM
GI50 [14]: 48 nM
inhibition of growth at 10 µM (SR [40]): 89%
GI50 [41]: 3090 nM
growth at 10 µM (MDA-MB-435 [42]): 44%
inhibition of growth at 10 µM [43]: 100%
GI50 [15]: 47 nM
inhibition of growth at 10 µM [44]: 83%
GI50 (U-251 [16]): 1630 nM
inhibition of growth at 10 µM [45]: 100%
GI50 (MCF7 [46]): 43 nM
GI50 (MDA-MB-435 [47]): 23 nM
GI50 [17]: 47 nM
inhibition of growth at 10 µM (SK-MEL-5 [48]): 86%
GI50 [18]: 2650 nM
inhibition of growth at 10 µM (MDA-MB-468 [49]): 89%
inhibition of growth at 10 µM (A498 [50]): 80%
GI50 [19]: 1950 nM
GI50 (SK-MEL-5 [20]): 60 nM
inhibition of growth at 10 µM [51]: 65%
GI50 (K562 [21]): 39 nM
inhibition of growth at 10 µM (NCI-H522 [52]): 91%

COc1cc(-c2nnc3[nH]c(=O)c4ccccc4n23)cc(OC)c1OC
inhibition at 10 µM (HT-29 [1]): 2%
IC50 (Tubulin): > 10000 nM

COc1ccc(-c2nnc3n(C)c(=O)c4ccccc4n23)cc1OC
inhibition at 10 µM (HT-29 [1]): 1%
IC50 (Tubulin): > 10000 nM

COc1cc(-c2nnc3n(C)c(=O)c4ccccc4n23)cc(OC)c1OC
inhibition at 10 µM (HT-29 [1]): 0%
IC50 (Tubulin): > 10000 nM

COc1ccc(-c2nnc3[nH]c(=O)c4ccccc4n23)cc1OC
inhibition at 10 µM (HT-29 [1]): 0%
IC50 (Tubulin): > 10000 nM

Cn1c(=O)c2ccccc2n2c(-c3ccc(O)c(O)c3)nnc12
inhibition at 10 µM (HT-29 [1]): 0%
IC50 (Tubulin): > 10000 nM

COc1cc2c(Oc3ccc4[nH]c(C)cc4c3F)ncnc2cc1OCCCN1CCCC1 [CEDIRANIB]
inhibition at 1 µM (HUVEC): 74%

COc1ccc(-c2nnc3n(C)c(=O)c4ccccc4n23)cc1
inhibition at 10 µM (HT-29 [1]): 2%
IC50 (Tubulin): > 10000 nM

COc1cc(-c2nnc3n(C)c(=O)c4ccccc4n23)ccc1O
inhibition at 10 µM (HT-29 [1]): 0%
IC50 (Tubulin): > 10000 nM

COc1ccc(-c2nnc3[nH]c(=O)c4ccccc4n23)cc1
inhibition at 10 µM (HT-29 [1]): 0%
IC50 (Tubulin): > 10000 nM
